Data reported in US8124610B2, “Sodium channel inhibitors” (Icagen Inc., priority 2007, dated 2012).
Like-named read-outs stand apart in the source and are kept apart here.

How the values were obtained:
[1] = molecular target: T1, hSCN3A (Homo sapiens, UniProt Q9NY46); test: Whole-cell patch-clamp electrophysiology (conventional or PatchXpress), HEK cells expressing hSCN3A, estimated IC-50; format: cell-based; conditions: read-out: SCN3A EIC-50
T1 construct: expressed in transfected cells
Protocol: Human Embryonic Kidney (HEK) cells were transfected with hSCN3A or hSCN9A constructs using lipofectamine reagent (Invitrogen), using standard techniques. Cells stably expressing the hSCN3A or hSCN9A constructs were identified by their resistance to G-418 (400 μg/ml). Clones were screened for expression using the whole-cell voltage-clamp technique. HEK cells stably transfected with hSCN3A or hSCN9A were maintained in DMEM medium supplemented with 10% heat-inactivated fetal bovine serum and 400 μg/ml G418 sulfate in an incubator at 37° C. with a humidified atmosphere of 10% CO2. For HTS, cells were harvested from flasks by trypsinization and replated in an appropriate multi-well plate (typically 96 or 384 wells/plate) such that confluence would be achieved within 24 hours of plating. For electrophysiological studies, cells were removed from the culture flask by brief trypsinization and replated at low density onto glass cover slips. Cells were typically used for electrophysiological experiments within 24 to 72 h after plating. Cover slips containing HEK cells expressing hSCN3A or hSCN9A were placed in a bath on the stage of an inverted microscope and perfused (approximately 1 ml/min) with extracellular solution of the following composition: 138 mM NaCl, 2 mM CaCl2, 5.4 mM KCl, 1 mM MgCl2, 10 mM glucose, and 10 mM HEPES, pH 7.4, with NaOH. […] All recordings were made at room temperature (22-24° C.) using AXOPATCH 200B amplifiers and PCLAMP software (Axon Instruments, Burlingame, Calif.) or PatchXpress 7000 hardware and associated software (Axon Instruments, Burlingame, Calif.). hSCN3A or hSCN9A currents in HEK cells were measured using the whole-cell configuration of the patch-clamp technique (Hamill et al., 1981). […] As a result, voltage errors were negligible and no correction was applied. Current records were acquired at 20 to 50 KHz and filtered at 5 to 10 KHz. HEK cells stably transfected with hSCN3A or hSCN9A were viewed under Hoffman contrast optics and placed in front of an array of flow pipes emitting either control or compound-containing extracellular solutions. All compounds were dissolved in dimethyl sulfoxide to make 10 mM stock solutions, which were then diluted into extracellular solution to attain the final concentrations desired. […] The voltage-dependence of inactivation was determined by applying a series of depolarizing prepulses (8 sec long in 10 mV increments) from a negative holding potential. The voltage was then immediately stepped to 0 mV to assess the magnitude of the sodium current. Currents elicited at 0 mV were plotted as a function of prepulse potential to allow estimation of the voltage midpoint of inactivation (V1/2). Cells were then voltage clamped at the empirically determined V1/2. Compounds were tested for their ability to inhibit hSCN3A or hSCN9A sodium channels by activating the channel with a 20 msec voltage step to 0 mV following an 8 second conditioning prepulse to the empirically determined V1-2 (Table B). Compound effect (% inhibition) was determined by difference in current amplitude before and after application of test compounds. […] In some cases electrophysiological assays were conducted with PatchXpress 7000 hardware and associated software (Molecular Devices Corp) (Table B). All assay buffers and solutions were identical to those used in conventional whole-cell voltage clamp experiments described above. hSCN3A or hSCN9A containing cells were grown as above to 50%-80% confluency and harvested by trypsinization. Trypsinized cells were washed and resuspended in extracellular buffer at a concentration of 1×10^6 cells/ml. The onboard liquid handling facility of the PatchXpress was used for dispensing cells and application of test compounds. Determination of the voltage midpoint of inactivation was as described for conventional whole-cell recordings. Cells were then voltage-clamped to the empirically determined V1/2 and current was activated by a 20 msec voltage step to 0 mV.

[2] = molecular target: T2, hSCN9A (Homo sapiens, UniProt Q15858); test: Whole-cell patch-clamp electrophysiology (conventional or PatchXpress), HEK cells expressing hSCN9A, estimated IC-50; format: cell-based; conditions: read-out: SCN9A EIC-50
T2 construct: expressed in transfected cells
T2 sequence (Q15858 whole entry): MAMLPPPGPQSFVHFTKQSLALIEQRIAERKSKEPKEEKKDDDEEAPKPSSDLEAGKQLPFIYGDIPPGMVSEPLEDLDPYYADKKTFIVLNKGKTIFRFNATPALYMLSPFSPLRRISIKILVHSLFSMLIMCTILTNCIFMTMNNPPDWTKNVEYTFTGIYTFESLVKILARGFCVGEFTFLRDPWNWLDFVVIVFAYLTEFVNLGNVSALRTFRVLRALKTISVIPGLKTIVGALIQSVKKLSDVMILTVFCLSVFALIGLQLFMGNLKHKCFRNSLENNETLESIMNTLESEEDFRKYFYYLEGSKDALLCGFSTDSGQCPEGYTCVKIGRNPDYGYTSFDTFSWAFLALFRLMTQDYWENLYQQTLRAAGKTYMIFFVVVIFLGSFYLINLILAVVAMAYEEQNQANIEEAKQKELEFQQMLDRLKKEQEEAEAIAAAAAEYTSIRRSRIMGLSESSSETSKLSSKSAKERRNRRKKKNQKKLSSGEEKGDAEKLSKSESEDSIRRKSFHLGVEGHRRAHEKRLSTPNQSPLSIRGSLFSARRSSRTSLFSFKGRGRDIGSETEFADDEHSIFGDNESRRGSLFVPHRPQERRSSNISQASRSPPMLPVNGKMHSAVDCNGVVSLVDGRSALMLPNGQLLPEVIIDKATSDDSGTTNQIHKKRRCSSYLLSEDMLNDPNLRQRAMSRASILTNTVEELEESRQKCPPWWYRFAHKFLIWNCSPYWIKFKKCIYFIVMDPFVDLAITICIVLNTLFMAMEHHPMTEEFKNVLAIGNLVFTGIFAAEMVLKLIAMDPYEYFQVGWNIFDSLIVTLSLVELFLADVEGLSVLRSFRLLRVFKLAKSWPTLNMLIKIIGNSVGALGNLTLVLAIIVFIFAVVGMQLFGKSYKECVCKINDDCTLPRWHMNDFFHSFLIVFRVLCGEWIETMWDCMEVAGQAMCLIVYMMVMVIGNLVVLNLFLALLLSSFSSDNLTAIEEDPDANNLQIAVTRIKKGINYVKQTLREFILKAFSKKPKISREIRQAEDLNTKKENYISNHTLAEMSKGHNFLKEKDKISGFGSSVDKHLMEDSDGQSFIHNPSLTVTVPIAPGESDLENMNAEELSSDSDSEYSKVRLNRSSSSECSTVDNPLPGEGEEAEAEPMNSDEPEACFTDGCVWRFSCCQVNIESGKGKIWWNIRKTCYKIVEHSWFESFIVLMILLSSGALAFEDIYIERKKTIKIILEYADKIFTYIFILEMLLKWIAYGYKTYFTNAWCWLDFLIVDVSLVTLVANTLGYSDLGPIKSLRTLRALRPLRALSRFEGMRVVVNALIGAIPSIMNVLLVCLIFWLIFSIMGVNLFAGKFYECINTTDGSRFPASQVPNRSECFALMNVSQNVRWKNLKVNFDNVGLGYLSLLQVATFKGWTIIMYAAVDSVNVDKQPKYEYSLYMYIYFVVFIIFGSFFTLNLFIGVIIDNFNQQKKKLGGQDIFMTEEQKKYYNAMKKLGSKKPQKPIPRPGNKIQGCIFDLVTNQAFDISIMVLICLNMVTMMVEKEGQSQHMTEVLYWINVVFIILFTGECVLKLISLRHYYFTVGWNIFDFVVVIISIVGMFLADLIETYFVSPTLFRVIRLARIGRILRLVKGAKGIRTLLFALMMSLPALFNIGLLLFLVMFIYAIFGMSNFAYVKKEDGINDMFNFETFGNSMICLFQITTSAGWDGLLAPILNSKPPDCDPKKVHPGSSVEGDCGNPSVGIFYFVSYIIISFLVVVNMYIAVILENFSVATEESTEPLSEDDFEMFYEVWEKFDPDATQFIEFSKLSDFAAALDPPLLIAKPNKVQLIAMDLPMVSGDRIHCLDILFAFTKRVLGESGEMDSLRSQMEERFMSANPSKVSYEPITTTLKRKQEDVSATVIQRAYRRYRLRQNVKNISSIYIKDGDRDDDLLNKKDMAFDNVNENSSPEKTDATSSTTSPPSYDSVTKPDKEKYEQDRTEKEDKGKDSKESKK
Procedure, shortened: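 Current through each channel was evoked by a 20 ms step to 0 mV following an 8 s conditioning prepulse at the cell's own half-inactivation voltage. Recordings used HEK lines stably expressing the channel, conventional or PatchXpress patch clamp, room temperature, pH 7.4 bath; inhibition taken as pre/post-compound amplitude change.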

[3] = Table V, estimated IC-50 from single point electrophysiology, cells clamped at V1/2
[4] = estimated IC-50, HEK cells expressing hSCN3A, class symbols or bounds
[5] = estimated IC-50, HEK cells expressing hSCN9A, class symbols or bounds

T1 sequence (Q9NY46 whole entry): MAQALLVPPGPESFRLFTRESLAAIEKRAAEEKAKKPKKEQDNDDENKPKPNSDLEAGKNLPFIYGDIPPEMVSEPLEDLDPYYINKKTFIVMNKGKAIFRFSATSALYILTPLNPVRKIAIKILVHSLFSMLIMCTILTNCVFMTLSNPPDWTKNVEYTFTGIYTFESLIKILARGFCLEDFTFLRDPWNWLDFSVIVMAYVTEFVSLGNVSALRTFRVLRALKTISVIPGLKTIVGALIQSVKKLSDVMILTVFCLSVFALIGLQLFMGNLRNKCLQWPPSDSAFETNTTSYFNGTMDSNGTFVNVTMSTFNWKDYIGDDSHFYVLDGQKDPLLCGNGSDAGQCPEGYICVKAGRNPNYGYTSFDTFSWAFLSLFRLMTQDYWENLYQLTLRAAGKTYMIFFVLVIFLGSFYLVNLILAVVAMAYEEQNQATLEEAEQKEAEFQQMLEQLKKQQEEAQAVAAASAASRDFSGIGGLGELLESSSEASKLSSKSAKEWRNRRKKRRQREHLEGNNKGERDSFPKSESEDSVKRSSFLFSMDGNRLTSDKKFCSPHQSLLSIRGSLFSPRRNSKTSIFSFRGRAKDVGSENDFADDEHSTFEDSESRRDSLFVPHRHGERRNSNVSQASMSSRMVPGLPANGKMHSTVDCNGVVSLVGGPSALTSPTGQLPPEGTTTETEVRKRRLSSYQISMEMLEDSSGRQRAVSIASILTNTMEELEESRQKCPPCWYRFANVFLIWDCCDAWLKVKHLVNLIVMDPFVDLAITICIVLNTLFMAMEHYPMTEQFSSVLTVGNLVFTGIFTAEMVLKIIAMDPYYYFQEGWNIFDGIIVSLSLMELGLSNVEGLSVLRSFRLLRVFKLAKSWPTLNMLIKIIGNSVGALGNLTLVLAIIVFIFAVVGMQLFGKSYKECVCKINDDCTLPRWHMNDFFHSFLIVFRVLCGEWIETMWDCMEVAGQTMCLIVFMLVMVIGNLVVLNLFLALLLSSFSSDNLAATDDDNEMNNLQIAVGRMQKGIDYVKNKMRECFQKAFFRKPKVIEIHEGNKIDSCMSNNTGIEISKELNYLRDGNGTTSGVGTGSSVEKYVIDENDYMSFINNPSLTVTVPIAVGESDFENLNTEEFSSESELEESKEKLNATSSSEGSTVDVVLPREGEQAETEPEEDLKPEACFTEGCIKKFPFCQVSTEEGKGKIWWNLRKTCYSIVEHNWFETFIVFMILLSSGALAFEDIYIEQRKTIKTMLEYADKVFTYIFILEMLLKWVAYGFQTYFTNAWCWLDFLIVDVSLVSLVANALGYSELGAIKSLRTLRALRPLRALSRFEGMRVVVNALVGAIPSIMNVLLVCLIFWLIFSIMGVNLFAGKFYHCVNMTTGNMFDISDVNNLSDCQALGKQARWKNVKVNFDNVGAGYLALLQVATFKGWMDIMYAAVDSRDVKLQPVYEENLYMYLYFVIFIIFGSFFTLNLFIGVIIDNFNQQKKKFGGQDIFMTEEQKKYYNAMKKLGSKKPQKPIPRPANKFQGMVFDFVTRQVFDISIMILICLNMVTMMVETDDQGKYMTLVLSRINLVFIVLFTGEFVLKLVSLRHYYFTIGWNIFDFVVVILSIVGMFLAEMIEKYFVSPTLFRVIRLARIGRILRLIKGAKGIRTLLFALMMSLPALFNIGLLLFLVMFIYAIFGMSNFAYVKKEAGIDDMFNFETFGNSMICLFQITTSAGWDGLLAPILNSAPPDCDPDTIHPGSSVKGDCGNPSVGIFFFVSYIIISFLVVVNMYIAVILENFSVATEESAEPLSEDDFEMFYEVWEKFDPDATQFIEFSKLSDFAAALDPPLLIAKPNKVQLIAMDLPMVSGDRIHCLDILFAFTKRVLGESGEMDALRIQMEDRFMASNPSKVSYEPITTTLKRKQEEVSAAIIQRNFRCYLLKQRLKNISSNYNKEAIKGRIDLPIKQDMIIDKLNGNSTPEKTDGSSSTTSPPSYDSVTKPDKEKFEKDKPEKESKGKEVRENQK

SMILES	IC50 [1, 3]	IC50 [2, 3]	IC50 [1, 4]	IC50 [2, 5]
O=S(=O)(Nc1nccs1)c1ccc(Nc2nc(Cc3ccc(Cl)cc3)cs2)cc1F [Compound 1, 4-[4-(4-Chloro-benzyl)-thiazol-2-ylamino]-2-fluoro-N-thiazol-2-yl-benzenesulfonamide]	< 2000 nM	< 2000 nM		
O=S(=O)(Nc1nccs1)c1ccc(Nc2nc(C(c3ccccc3)c3ccccc3)cs2)cc1 [Compound 2, 4-(4-Benzhydrylthiazol-2-ylamino)-N-(thiazol-2-yl)benzenesulfonamide]	< 2000 nM	2000 to 10000 nM		
COc1ccc(Cc2csc(Nc3ccc(S(=O)(=O)Nc4nccs4)c(F)c3)n2)cc1 [Compound 3, 2-Fluoro-4-[4-(4-methoxy-benzyl)-thiazol-2-ylamino]-N-thiazol-2-yl-benzenesulfonamide]	< 2000 nM	> 10000 nM		
CS(=O)(=O)c1ccc(Cc2csc(Nc3ccc(S(=O)(=O)Nc4nccs4)c(F)c3)n2)cc1 [Compound 4, 2-Fluoro-4-[4-(4-methanesulfonyl-benzyl)-thiazol-2-ylamino]-N-thiazol-2-yl-benzenesulfonamide]	< 2000 nM	2000 to 10000 nM		
N#Cc1ccc(Cc2csc(Nc3ccc(S(=O)(=O)Nc4nccs4)c(F)c3)n2)cc1 [Compound 5, 4-[4-(4-Cyano-benzyl)-thiazol-2-ylamino]-2-fluoro-N-thiazol-2-yl-benzenesulfonamide]	< 2000 nM	2000 to 10000 nM		
CN(c1ccc(S(=O)(=O)Nc2nccs2)c(F)c1)c1nc(Cc2ccc(Cl)cc2)cs1 [Compound 6, 4-[4-(4-Chloro-benzyl)-thiazol-2-yl]-methyl-amino-2-fluoro-N-thiazol-2-yl-benzenesulfonamide]	2000 to 10000 nM	2000 to 10000 nM		
CC(C)(C)c1csc(Nc2ccc(S(=O)(=O)Nc3nccs3)c(F)c2)n1 [Compound 7, 4-(4-Tert-butyl-thiazol-2-ylamino)-2-fluoro-N-thiazol-2-yl-benzenesulfonamide]	< 2000 nM	2000 to 10000 nM		
Cc1nc(Nc2ccc(S(=O)(=O)Nc3nccs3)cc2)sc1C(C)(C)C [Compound 8, 4-(5-Tert-butyl-4-methylthiazol-2-ylamino)-N-(thiazol-2-yl)benzenesulfonamide]	< 2000 nM	< 2000 nM		
CC(=O)c1sc(Nc2ccc(S(=O)(=O)Nc3nccs3)c(F)c2)nc1C [Compound 9, 4-(5-Acetyl-4-methyl-thiazol-2-ylamino)-2-fluoro-N-thiazol-2-yl-benzenesulfonamide]	2000 to 10000 nM	2000 to 10000 nM		
CC(C)(C)c1csc(Nc2ccc(S(=O)(=O)Nc3nccs3)c(Cl)c2)n1 [Compound 10, 4-(4-Tert-butyl-thiazol-2-ylamino)-2-chloro-N-thiazol-2-yl-benzenesulfonamide]	< 2000 nM	2000 to 10000 nM		
CC(C)(C)c1csc(Nc2ccc(S(=O)(=O)Nc3nccs3)c(OC(F)(F)F)c2)n1 [Compound 11, 4-(4-tert-Butyl-thiazol-2-ylamino)-N-thiazol-2-yl-2-trifluoromethoxy-benzenesulfonamide]	2000 to 10000 nM	2000 to 10000 nM		
O=S(=O)(Nc1nccs1)c1ccc(Nc2nc(CCCCl)cs2)cc1 [Compound 59, 4-(4-(3-chloropropyl)thiazol-2-ylamino)-N-(thiazol-2-yl)benzenesulfonamide]			< 2000 nM	
COc1ccnc(Nc2ccc(S(=O)(=O)Nc3cc(C)on3)cc2)n1 [Compound 86, 4-(4-methoxypyrimidin-2-ylamino)-N-(5-methylisoxazol-3-yl)benzenesulfonamide]			> 1000 nM	
Cc1cc(NS(=O)(=O)c2ccc(Nc3nccc(OCc4ccc(C(F)(F)F)cc4)n3)cc2)no1 [Compound 87, N-(5-methylisoxazol-3-yl)-4-(4-(4-(trifluoromethyl)benzyloxy)pyrimidin-2-ylamino)benzenesulfonamide]			> 1000 nM	

Continued, values first:

IC50 [1, 3]	IC50 [2, 3]	IC50 [1, 4]	IC50 [2, 5]	SMILES
		2000 to 10000 nM		Cc1cc(NS(=O)(=O)c2ccc(Nc3ccnc(OCc4ccc(C(F)(F)F)cc4)n3)cc2)no1 [Compound 88, N-(5-methylisoxazol-3-yl)-4-(2-(4-(trifluoromethyl)benzyloxy)pyrimidin-4-ylamino)benzenesulfonamide]
			2000 to 10000 nM	O=S(=O)(Nc1ccncn1)c1ccc(Nc2ccn(Cc3ccc(Cl)cc3)n2)cc1F [Compound 262, 4-(1-(4-chlorobenzyl)-1H-pyrazol-3-ylamino)-2-fluoro-N-(pyrimidin-4-yl)benzenesulfonamide]
			< 2000 nM	O=S(=O)(Nc1nncs1)c1ccc(Nc2ccn(Cc3ccc(Cl)cc3)n2)cc1C(F)(F)F [Compound 265, 4-(1-(4-chlorobenzyl)-1H-pyrazol-3-ylamino)-N-(1,3,4-thiadiazol-2-yl)-2-(trifluoromethyl)benzenesulfonamide]
			< 2000 nM	Cc1cc(Nc2cc(F)c(S(=O)(=O)Nc3nccs3)cc2F)n(-c2ccccc2)n1 [Compound 267, 2,5-difluoro-4-(3-methyl-1-phenyl-1H-pyrazol-5-ylamino)-N-(thiazol-2-yl)benzenesulfonamide]
			2000 to 10000 nM	Cc1cc(Nc2ccc(S(=O)(=O)Nc3nccs3)c(C)c2)n(-c2ccccc2)n1 [Compound 268, 2-methyl-4-(3-methyl-1-phenyl-1H-pyrazol-5-ylamino)-N-(thiazol-2-yl)benzenesulfonamide]
			> 1000 nM	Cc1cc(Nc2ccc(S(=O)(=O)Nc3nccs3)c(OC(F)(F)F)c2)n(-c2ccccc2)n1 [Compound 270, 4-(3-methyl-1-phenyl-1H-pyrazol-5-ylamino)-N-(thiazol-2-yl)-2-(trifluoromethoxy)benzenesulfonamide]
			2000 to 10000 nM	Cc1cc(Nc2ccn(Cc3ccc(Cl)cc3)n2)ccc1S(=O)(=O)Nc1nccs1 [Compound 271, 4-(1-(4-chlorobenzyl)-1H-pyrazol-3-ylamino)-2-methyl-N-(thiazol-2-yl)benzenesulfonamide]
			> 1000 nM	Cc1cc(Nc2ccc(S(=O)(=O)Nc3nccs3)c(C(F)(F)F)c2)n(-c2ccccc2)n1 [Compound 272, 4-(3-methyl-1-phenyl-1H-pyrazol-5-ylamino)-N-(thiazol-2-yl)-2-(trifluoromethyl)benzenesulfonamide]
			> 1000 nM	N#Cc1cc(S(=O)(=O)Nc2ncns2)ccc1Nc1nnc(-c2ccccc2)c(O)n1 [Compound 273, 3-cyano-4-(5-hydroxy-6-phenyl-1,2,4-triazin-3-ylamino)-N-(1,2,4-thiadiazol-5-yl)benzenesulfonamide]
			< 2000 nM	O=S(=O)(Nc1nccs1)c1ccc2c(cnn2Cc2ccc(OC(F)(F)F)cc2)c1 [Compound 274, N-(thiazol-2-yl)-1-(4-(trifluoromethoxy)benzyl)-1H-indazole-5-sulfonamide]
			2000 to 10000 nM	O=S(=O)(Nc1nccs1)c1ccc2nn(Cc3ccc(OC(F)(F)F)cc3)cc2c1 [Compound 275, N-(thiazol-2-yl)-2-(4-(trifluoromethoxy)benzyl)-2H-indazole-5-sulfonamide]
			< 2000 nM	O=S(=O)(Nc1nccs1)c1ccc2c(cnn2CCCCc2ccccc2)c1 [Compound 278, 1-(4-phenylbutyl)-N-(thiazol-2-yl)-1H-indazole-5-sulfonamide]
			2000 to 10000 nM	O=S(=O)(Nc1nccs1)c1ccc2nn(CCCCc3ccccc3)cc2c1 [Compound 279, 2-(4-phenylbutyl)-N-(thiazol-2-yl)-2H-indazole-5-sulfonamide]
